In patent US20240191198A1, “CELL-CULTURED FOOD PRODUCTS AND RELATED CELLS, COMPOSITIONS, METHODS AND SYSTEMS” (BlueNalu, Inc., priority 2021, published 2024):
Entries after “also recorded” stand apart in the source; their conditions may differ.

Key:
Yellowtail myoblasts [1] = assay: Loading of single fatty acids into yellowtail myoblasts; format: cell-based, Seriola lalandi; conditions: for lipid accumulation (BODIPY): individual BSA-conjugated fatty acid 25, 50, 75 or 100 μg/ml, 4% serum
Description: Cells were seeded onto tissue culture polystyrene at a density of 6000 cells per cm^2. Cells were cultured in the presence of control media without fatty acids or test media with individual fatty acids conjugated to BSA at 25, 50, 75, or 100 μg/ml in the presence of 4% serum. Individual fatty acids tested included saturated fatty acids, monounsaturated fatty acids, and unsaturated fatty acids as shown in Table 7 with varying carbon chain length and location of double bonds along the carbon chain. Cell morphology was observed over a six-day period by brightfield microscopy for characteristic rounding and lipid loading.

[2] = tested on: silver carp preadipocytes; assay: Loading of single fatty acids into carp preadipocytes; format: cell-based, Hypophthalmichthys molitrix; conditions: six days; for lipid loading (brightfield, BODIPY lipid droplets): individual fatty acid 25, 50, 75 or 100 μg/ml; for toxicity (cell confluency, cell number): individual fatty acid up to 100 μg/ml
Description: Preadipocytes derived from freshwater carp as described in Example 1 were evaluated for the ability to uptake individual fatty acids. Cells were seeded onto tissue culture polystyrene at a density of 5-7000 cells per cm^2. Cells were cultured in the presence of control media without fatty acids or test media with individual fatty acids at 25, 50, 75, or 100 μg/ml in the absence of serum. Individual fatty acids tested included saturated fatty acids ([…]) and unsaturated fatty acids (linoleic acid). Cell morphology was observed over a six-day period by brightfield microscopy for characteristic rounding and lipid loading. As in Example 1, immunofluorescent staining of cells was performed for cell nuclei by DAPI, cell cytoskeleton by Phalloidin, and lipid droplets by BODIPY.

rabbit skin fibroblasts = assay: Effect of nervonic acid on fatty acid toxicity (IncuCyte, CellTiter-Glo ATP assay); format: cell-based, Oryctolagus cuniculus
Description: (§1) Concentration effects of fatty acids previously shown to be toxic to aquatic fat-derived and muscle-derived cells (Example 2, Example 5, and Example 6, respectively) were evaluated, alone and in combination with nervonic acid. EPA, DHA, stearic acid, palmitic acid and nervonic acid were tested at concentrations of 0, 10, 25, and 50 ug/mL; each concentration of EPA, DHA, stearic acid and palmitic acid was also tested in combination with 10, 25 and 50 μg/ml of nervonic acid.
(§2) Cell lines were seeded per standard passaging protocols in 4×96 well plates. The cells were allowed to proliferate to approximately 80% confluence, and then transitioned to lipid loading medium containing 0/4% FBS and appropriate lipid compositions, with 6 wells/condition. Cells were monitored for 24-48 hours to evaluate any protective effect with the addition of nervonic acid.
(§3) Cells from terrestrial cell lines were imaged in the IncuCyte for a 1-time scan to collect the images and quantify confluence using the IncuCyte software. Following imaging, cell viability was determined by a commercially available ATP assay (CellTiter-Glo 2.0, Promega) where luminescent signal is proportionate to cell number.

dog kidney cells = assay: as above; format: cell-based, Canis familiaris
Description: as §1, §2, §3

Bluefin tuna myoblasts = assay: as above; format: cell-based, Thunnus orientalis
Description: as §1, §2
Cells from aquatic species were placed in the IncuCyte and scanned every 6 hours up to 48 hours. Once imaging was completed, cellviability was determined by a commercially available ATP assay (CellTiter-Glo 2.0, Promega) where luminescent signal is proportionate to cell number.

Yellowtail myoblasts [3] = assay: Loading of chemically defined fatty acid combinations (Taguchi L-27) into yellowtail myoblasts: cell number, BODIPY, Mitotracker; format: cell-based, Seriola lalandi; conditions: fatty acids each at 0, 10, 25 or 50 μg/ml, 4% serum
Description: Myoblasts derived from yellowtail as described in Example 4 were evaluated for the ability to uptake fatty acids from a defined chemical composition. Cells were seeded onto tissue culture polystyrene at a density of 6000 cells per cm^2. Cells were cultured in the presence of control media without fatty acids or test media with fatty acids conjugated to BSA in the presence of 4% serum for two or six days. Concentrations were used for each individual fatty acid at 0, 10, 25, or 50 μg/ml. Combinations of fatty acids were determined using a design of experiments using a Taguchi L-27 design (Table 8). […] Cells were fixed, stained and imaged at day two or day six. Cells were treated with NucBlue, BODIPY and Mitotracker for 1.5 hours and live imaging was performed. Cells were then fixed in 4% PFA for 15 minutes and then blocked overnight at 4 degrees Celsius in blocking buffer that contained 5% goat serum, 1% BSA, and 0.2% fish gelatin in PBS. Cells were incubated with Phalloidin for 1 hour at room temperature in blocking buffer (Phalloidin 1:800). Plates were washed twice with PBS prior to imaging. JMP statistical software was used to quantify the effect of each fatty acid on cell number, fatty acid accumulation, and cell health.

[4] = tested on: Myoblasts or fibroblasts of chicken, duck, goose, or turkey; assay: Loading of fatty acid mixtures and single fatty acids into cells from avian species; format: cell-based
Description: Myoblasts or fibroblasts of chicken, duck, goose, or turkey are isolated from muscle tissue by enzymatic and mechanical/or manual dissociation. Cells are expanded in 2D tissue culture or cell suspension culture.
(§4) Cells are cultured in the presence of control media without fatty acids or test media with individual fatty acids at 1, 5, 10, 15, 25, 50, 75, or 100 μg/ml in the absence or presence of reduced serum. Fatty acids are conjugated to BSA or unconjugated. Individual fatty acids include saturated fatty acids, monounsaturated fatty acids, and poly-unsaturated fatty acids with varying carbon chain lengths and location of double bonds along the carbon chains.

[5] = tested on: Myoblasts or fibroblasts of cow, pork, goat, lamb, or deer; assay: Loading of fatty acid mixtures and single fatty acids into mammalian cells; format: cell-based
Description: Myoblasts or fibroblasts of cow, pork, goat, lamb, or deer are isolated from muscle tissue by enzymatic and mechanical/or manual dissociation. Cells are expanded in 2D tissue culture or 3D cell suspension culture.
as §4

[6] = toxic concentration of 50 μg/mL DHA
[7] = 1-100 μg/ml, absence or presence of reduced serum
[8] = added to the growth medium as the only fatty acid

## CCCCC/C=C\C/C=C\CCCCCCCC(=O)O [linoleic acid]
Yellowtail myoblasts [1]; six days
  lipid accumulation (BODIPY): limited total loading capacity
[2]
  lipid loading (brightfield, BODIPY lipid droplets): concentration-dependent lipid accumulation; also recorded: increased loading with concentration

## CCCCCC/C=C\CCCCCCCC(=O)O [palmitoleic acid]
Yellowtail myoblasts [1]; six days
  lipid accumulation (BODIPY): Loading at all concentrations was observed
[2]
  lipid loading (brightfield, BODIPY lipid droplets): concentration-dependent lipid accumulation; also recorded: a peak for palmitoleic acid is reached at a lower concentration
  toxicity (cell confluency, cell number): reduced cell confluency indicating potential toxicity
  concentration above which toxicity occurs: above 50 μg/ml
[2]; listed as Palmitoleic acid
  lipid loading (brightfield, BODIPY lipid droplets): effective loading at 50 μg/ml
  toxicity (cell confluency, cell number): reduced cell number; also recorded: Some concentration-related toxicity

## CCCCCCCCCCCCCC(=O)O [myristic acid]
Yellowtail myoblasts [1]; six days
  lipid accumulation (BODIPY): limited accumulation with only small areas of uptake even at the highest concentration of 100 μg/ml

## CCCCCCCCCCCC(=O)O [lauric acid]
Yellowtail myoblasts [1]; six days
  lipid accumulation (BODIPY): significant accumulation at all concentrations tested; also recorded: Highest lipid loading

## CCCCCC/C=C\CCCCCCCCCC(=O)O [vaccenic acid, (11Z)-11-octadecenoic acid]
Yellowtail myoblasts [1]; six days
  lipid accumulation (BODIPY): Loading at all concentrations was observed
Yellowtail myoblasts [1]; six days, listed as Cis-vaccenic acid
  lipid accumulation (BODIPY): taken up very readily

## CCCCCCCC/C=C\CCCCCCCC(=O)O [oleic acid]
Yellowtail myoblasts [1]; six days
  lipid accumulation (BODIPY): Loading at all concentrations was observed

## CC/C=C\C/C=C\C/C=C\C/C=C\C/C=C\C/C=C\CCC(=O)O [DHA, docosahexaenoic acid]
Rabbit skin fibroblasts; 24-48 hours
  toxic concentration: 50 µg/mL
Yellowtail myoblasts [1]; altered cell morphology and decreased cell number
  concentration above which toxicity occurs: above 25 μg/ml
Yellowtail myoblasts [1]; individual fatty acid, six days
  toxicity (cell morphology, cell number): some toxicity effects at highest concentrations tested
Dog kidney cells; 24-48 hours
  toxic concentration: 50 µg/mL
Bluefin tuna myoblasts; 24-48 hours
  toxic concentration: 50 µg/mL

## CCCCCCCC/C=C\CCCCCCCCCCCCCC(=O)O [nervonic acid, (Z)-Tetracos-15-enoic acid]
Rabbit skin fibroblasts; [6]
  increase in cell number (cell ATP) in the presence of nervonic acid: 42 ×
Yellowtail myoblasts [1]; six days
  lipid accumulation (BODIPY): no lipid accumulation at any concentration tested; also recorded: does not load when used individually; also recorded: No lipid loading was observed
Yellowtail myoblasts [3]
  cell number and health (Mitotracker), viability: key factor in increasing lipid accumulation and cell number
Yellowtail myoblasts [3]; two or six days
  lipid content / lipid accumulation (BODIPY fluorescence): key factor in increasing lipid accumulation and cell number
Dog kidney cells; [6]
  increase in cell number (cell ATP) in the presence of nervonic acid: 5.5 ×
[4]; [7]
  lipid uptake and lipid accumulation: causes increased lipid uptake and lipid accumulation
[4]; [8]
  cell proliferation: increases cell proliferation
[5]; [7]
  lipid uptake and lipid accumulation: causes increased lipid uptake and lipid accumulation
[5]; [8]
  cell proliferation: increases cell proliferation
Bluefin tuna myoblasts; [6]
  increase in cell number (cell ATP) in the presence of nervonic acid: 70 ×

## CCCCCCCCCCCCCCCC(=O)O [palmitic acid]
Yellowtail myoblasts [1]; six days
  lipid accumulation (BODIPY): limited accumulation with only small areas of uptake even at the highest concentration of 100 μg/ml

## CC/C=C\C/C=C\C/C=C\CCCCCCCC(=O)O [linolenic acid, α-linolenic acid]
Yellowtail myoblasts [1]; six days
  lipid accumulation (BODIPY): lipid accumulation that was concentration-driven; also recorded: Loading at all concentrations was observed

## CCCCCCCCCCCCCCCCCC(=O)O [stearic acid]
Yellowtail myoblasts [1]; six days
  lipid accumulation (BODIPY): limited accumulation with only small areas of uptake even at the highest concentration of 100 μg/ml
